Experimental data as given in ChEMBL document CHEMBL1151610, “Use of potato disc and brine shrimp bioassays to detect activity and isolate piceatannol as the antileukemic principle from the seeds of Euphorbia lagascae” (J Nat Prod, 1984).
Values after ≈ are worked out from the molar mass of the structure shown. Active and inactive are the calls of the source. No cut-off for these calls is given here.

Assays:
Mus musculus = assay: Antitumor activity against mouse 3PS cells xenografted mouse assessed as increase in life span; format: functional, cell-based
[1] = Toxicity against brine shrimp; format: organism-based; details: artemia, in vivo
[2] = system: Agrobacterium tumefaciens; assay: Antitumor activity against Agrobacterium tumefaciens-induced tumor formation at 10 ug/disk by potato disk assay; format: functional
[3] = Cytotoxicity against mouse 9PS cells; format: functional; details: read-out: LC50 (the source's name)
[4] = Antitumor activity against mouse 3PS cells xenografted mouse assessed as increase in life span at 25 mg/kg; format: functional
[5] = Antitumor activity against mouse 3PS cells xenografted mouse assessed as increase in life span at 12.5 mg/kg; format: functional
[6] = Antitumor activity against mouse 3PS cells xenografted mouse assessed as increase in life span at 6.25 mg/kg; format: functional
[7] = Antitumor activity against mouse 3PS cells xenografted mouse assessed as increase in life span at 3.62 mg/kg; format: functional
[8] = Antitumor activity against mouse 3PS cells xenografted mouse assessed as increase in life span at 50 mg/kg; format: functional

SMILES	Activity (Mus musculus)	LC50 [1] [µg/mL]	Activity [2] [%]	CC50 [3] [µg/mL]	Activity [4] [%]	Activity [5] [%]	Activity [6] [%]	Activity [7] [%]	Activity [8] [%]
O=c1ccc2cc(O)c(O)cc2o1 [ESCULETIN]	inactive	> 1000	-13	3.9 (≈ 21.9 µM)					
Oc1cc(O)cc(/C=C/c2ccc(O)c(O)c2)c1 [PICEATANNOL]		278 (≈ 1140 µM)	-20	2.5 (≈ 10.2 µM)	123	118	114	109	131
